Data on 13 compounds can be found in ChEMBL document CHEMBL3871295, “N-Propargylpiperidines with naphthalene-2-carboxamide or naphthalene-2-sulfonamide moieties: Potential multifunctional anti-Alzheimer's agents” (Bioorg Med Chem, 2017).

Calls of active or inactive are those of the source. The calls are words filed in the database; no cut-off is given here.

The conditions of series [1]: PAMPA, pH 7.4. On the technique in general: The PAMPA barrier holds no transporters, so it reflects passive diffusion.
Series [2] deals with T1, Amine oxidase [flavin-containing] B (Homo sapiens, UniProt P27338).
T1 sequence (P27338 whole entry): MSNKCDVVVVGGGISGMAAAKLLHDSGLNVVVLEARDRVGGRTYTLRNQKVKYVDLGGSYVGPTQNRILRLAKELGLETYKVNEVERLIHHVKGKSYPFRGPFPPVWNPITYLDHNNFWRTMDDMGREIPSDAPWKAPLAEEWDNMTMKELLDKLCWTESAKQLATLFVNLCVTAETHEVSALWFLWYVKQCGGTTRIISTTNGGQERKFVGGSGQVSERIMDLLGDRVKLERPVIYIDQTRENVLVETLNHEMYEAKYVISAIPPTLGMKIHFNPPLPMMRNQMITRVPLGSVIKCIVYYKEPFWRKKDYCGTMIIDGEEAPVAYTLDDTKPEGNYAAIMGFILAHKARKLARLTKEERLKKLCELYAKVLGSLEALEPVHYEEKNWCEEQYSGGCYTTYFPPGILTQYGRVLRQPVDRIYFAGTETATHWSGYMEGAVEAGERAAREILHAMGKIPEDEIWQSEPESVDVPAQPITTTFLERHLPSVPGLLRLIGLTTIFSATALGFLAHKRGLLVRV
The experiment in a line: biochemical. Format: cell-based.

For series [3], the species on record is Homo sapiens. Nature of the series: Selectivity ratio of IC50 for human recombinant microsomal MAO-A expressed in baculovirus-infected insect cells to IC50 for human recombinant microsomal MAO-B expressed in baculovirus-infected insect cells.
The target in series [4] is Amyloid-beta precursor protein (Homo sapiens) (UniProt P05067). The experiment in a line: Inhibition of HFIP-pretreated recombinant human amyloid beta (1 to 42) self-induced aggregation at 10 uM measured after 20 hrs for every 300 secs by thioflavin-T based fluorometric assay relative to control.
Sequence of Amyloid-beta precursor protein (Homo sapiens) (P05067 whole entry): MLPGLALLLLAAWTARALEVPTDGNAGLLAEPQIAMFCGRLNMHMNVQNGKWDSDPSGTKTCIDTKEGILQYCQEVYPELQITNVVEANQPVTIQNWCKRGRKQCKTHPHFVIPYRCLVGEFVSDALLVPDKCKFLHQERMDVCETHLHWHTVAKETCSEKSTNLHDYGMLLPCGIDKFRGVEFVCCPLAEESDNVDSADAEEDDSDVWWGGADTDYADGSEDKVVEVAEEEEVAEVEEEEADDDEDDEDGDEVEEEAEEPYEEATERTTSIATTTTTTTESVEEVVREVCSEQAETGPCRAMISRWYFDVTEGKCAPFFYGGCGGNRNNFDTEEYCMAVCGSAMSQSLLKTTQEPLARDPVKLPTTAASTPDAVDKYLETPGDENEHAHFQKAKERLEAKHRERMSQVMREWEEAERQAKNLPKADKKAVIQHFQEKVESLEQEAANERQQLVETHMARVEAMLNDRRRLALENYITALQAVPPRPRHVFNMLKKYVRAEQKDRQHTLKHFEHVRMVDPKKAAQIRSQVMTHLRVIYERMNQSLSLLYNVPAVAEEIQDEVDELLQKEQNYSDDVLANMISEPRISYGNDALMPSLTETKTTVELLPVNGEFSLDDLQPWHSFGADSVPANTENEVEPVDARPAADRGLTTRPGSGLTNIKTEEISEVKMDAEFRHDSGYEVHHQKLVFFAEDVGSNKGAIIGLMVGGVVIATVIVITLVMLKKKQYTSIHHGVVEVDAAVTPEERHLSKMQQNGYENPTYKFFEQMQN
Series [5] deals with Cholinesterase (Homo sapiens, UniProt P06276).
Sequence of Cholinesterase (P06276 whole entry): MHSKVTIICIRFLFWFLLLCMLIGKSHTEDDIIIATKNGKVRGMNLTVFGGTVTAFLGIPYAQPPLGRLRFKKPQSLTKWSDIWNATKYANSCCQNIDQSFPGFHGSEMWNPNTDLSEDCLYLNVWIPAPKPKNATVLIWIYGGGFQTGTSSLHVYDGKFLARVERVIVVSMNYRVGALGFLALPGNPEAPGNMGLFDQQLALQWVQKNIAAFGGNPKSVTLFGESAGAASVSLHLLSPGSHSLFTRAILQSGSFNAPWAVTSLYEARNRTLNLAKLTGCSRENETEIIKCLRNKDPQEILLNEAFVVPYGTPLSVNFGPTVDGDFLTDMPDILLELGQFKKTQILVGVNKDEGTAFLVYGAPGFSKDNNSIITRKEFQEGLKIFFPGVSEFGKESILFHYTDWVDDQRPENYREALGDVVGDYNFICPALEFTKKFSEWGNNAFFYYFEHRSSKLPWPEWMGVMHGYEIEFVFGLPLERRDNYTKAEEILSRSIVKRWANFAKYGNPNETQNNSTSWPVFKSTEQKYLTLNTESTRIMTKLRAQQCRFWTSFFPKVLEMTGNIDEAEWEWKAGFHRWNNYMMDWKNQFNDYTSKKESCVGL
For series [6], the target named is T2, Acetylcholinesterase (Mus musculus, UniProt P21836).
T2 sequence (P21836 whole entry): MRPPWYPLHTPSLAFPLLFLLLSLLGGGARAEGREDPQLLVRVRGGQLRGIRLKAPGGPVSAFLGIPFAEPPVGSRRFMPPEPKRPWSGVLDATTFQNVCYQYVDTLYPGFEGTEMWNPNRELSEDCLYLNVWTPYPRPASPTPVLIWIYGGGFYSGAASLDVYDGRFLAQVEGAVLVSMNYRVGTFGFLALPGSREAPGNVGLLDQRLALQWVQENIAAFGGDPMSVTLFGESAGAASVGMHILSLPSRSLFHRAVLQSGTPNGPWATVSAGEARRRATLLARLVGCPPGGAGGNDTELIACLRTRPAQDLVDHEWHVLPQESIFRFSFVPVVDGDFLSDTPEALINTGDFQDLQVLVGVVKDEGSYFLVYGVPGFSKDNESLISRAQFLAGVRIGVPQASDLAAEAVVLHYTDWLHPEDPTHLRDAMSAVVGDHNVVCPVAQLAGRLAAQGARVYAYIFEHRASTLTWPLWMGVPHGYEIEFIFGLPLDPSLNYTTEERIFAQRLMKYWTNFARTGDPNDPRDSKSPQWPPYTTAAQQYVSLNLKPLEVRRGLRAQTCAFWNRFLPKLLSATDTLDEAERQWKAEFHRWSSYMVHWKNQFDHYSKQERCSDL

For series [7], the target named is T3, Amine oxidase [flavin-containing] A (Homo sapiens, UniProt P21397).
T3 sequence (P21397 whole entry): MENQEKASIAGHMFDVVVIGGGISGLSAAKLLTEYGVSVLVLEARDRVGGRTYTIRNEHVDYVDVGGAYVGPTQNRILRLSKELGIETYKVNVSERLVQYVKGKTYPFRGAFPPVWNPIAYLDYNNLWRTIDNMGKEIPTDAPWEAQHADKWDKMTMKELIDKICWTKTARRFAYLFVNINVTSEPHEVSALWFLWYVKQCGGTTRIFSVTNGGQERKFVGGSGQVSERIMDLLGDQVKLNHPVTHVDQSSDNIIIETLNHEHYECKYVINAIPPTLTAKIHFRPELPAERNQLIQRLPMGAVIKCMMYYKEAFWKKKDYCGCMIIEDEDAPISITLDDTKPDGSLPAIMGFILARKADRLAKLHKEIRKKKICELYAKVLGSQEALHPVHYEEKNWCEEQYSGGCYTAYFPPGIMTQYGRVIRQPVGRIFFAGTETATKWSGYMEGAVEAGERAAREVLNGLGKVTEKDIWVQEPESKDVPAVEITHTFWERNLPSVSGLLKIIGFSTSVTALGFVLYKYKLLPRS
Nature of the series: biochemical.

Series [8] deals with T1, Amine oxidase [flavin-containing] B. The experiment in a line: Irreversible inhibition of human recombinant microsomal MAO-B expressed in baculovirus-infected insect cells at 10 times IC50 preincubated for 15 mins followed by dilution to […] and subsequent addition of p-tyramine hydrochloride substrate measured for 30 mins by amplex red assay relative to control. Particulars: 0.5 h.

The target is the same in series [9]. The experiment in a line: Time-dependent inhibition of human recombinant microsomal MAO-B expressed in baculovirus-infected insect cells preincubated for 5 to 30 mins by IC50 shift assay.
A short description of series [10]: Cytotoxicity against human SH-SY5Y cells at 5 uM measured after 48 hrs by MTS assay. Format: toxicity, cell-based.
Series [11] in a line: Cytotoxicity against human SH-SY5Y cells measured after 48 hrs by MTS assay. Format: toxicity, cell-based. As to conditions: read-out: LD50. For orientation: Tetrazolium assays rely on reduction of a dye to a coloured formazan, in cell work by metabolically active cells.
For series [12], the system named is MAO-B. Nature of the series: Selectivity index, ratio of LD50 for cytotoxicity against human SH-SY5Y cells to IC50 for human recombinant microsomal MAO-B expressed in baculovirus-infected insect cells. Format: toxicity. As to conditions: read-out: Ratio LD50/IC50.
In series [13] the test system is SH-SY5Y. Nature of the series: Neuroprotective activity against amyloid beta (1 to 42) induced cell death in human SH-SY5Y cells assessed as cell viability at 5 uM measured after 48 hrs by MTS assay. The series is classed as functional, cell-based.
Series [14] relates to BChE. Nature of the series: in vitro. As to conditions: human, SH-SY5Y cells.
Series [15] can be described thus: Cytotoxicity against human SH-SY5Y cells at […] measured after 48 hrs by MTS assay. The series is classed as toxicity, cell-based.
Series [16] has as its system SH-SY5Y. The experiment in a line: Neuroprotective activity against amyloid beta (1 to 42) induced cell death in human SH-SY5Y cells assessed as cell viability at […] measured after 48 hrs by MTS assay. The series is classed as functional, cell-based.

Regarding `CC(=O)[C@H]1CC[C@H]2[C@@H]3CCC4=CC(=O)CC[C@]4(C)[C@H]3CC[C@]12C` [PROGESTERONE], the logPeff in series [1] is recorded as -4.
By IC50 is commonly meant the concentration that gives 50% inhibition. Read a high IC50 as weaker potency in that assay. A word on the inhibition: it is the relative decrease from the control value, in per cent. As to `C#CCN1CCCC(CN(CCOC)S(=O)(=O)c2ccc3ccccc3c2)C1` (centres undefined), the IC50 in series [2] is > 100 µM; in series [5] it was 0.137 µM; in series [6] it was > 100 µM; in series [7], > 100 µM. The Ratio IC50 in [3] was determined as 1. Besides, the inhibition in series [4] is < 10%.
Regarding `C#CCN1CCCC(CN(CCCOC)C(=O)c2ccc3ccccc3c2)C1` (centres undefined), the 50% inhibitory concentration (IC50) in series [2] is > 100 µM; in series [5], 8.64 µM; in series [6], > 100 µM; in series [7] it was > 100 µM. The Ratio IC50 in series [3] came out at 1. In addition, in series [4], the inhibition is < 10%.
With `C#CCN1CCC(CN(CCOC)C(=O)c2ccc3ccccc3c2)CC1`, the IC50 was > 100 µM in series [2], 4.04 µM in [5], > 100 µM in series [6] and > 100 µM in series [7]. In addition, the Ratio IC50 in [3] is 1. In series [4], the inhibition is 23.4%.
For `C#CCN1CCCC(CNC(=O)c2ccc3ccccc3c2)C1` (centres undefined), the concentration for half-maximal inhibition (IC50) in [2] is 59.3 µM; in series [5] it was 23.4 µM; in series [6], > 100 µM; in series [7], > 100 µM. Besides, the Ratio IC50 in [3] is > 1.69. For the same compound, the inhibition in series [4] is < 10%.
`C#CCN1CCCC(CN(CCOC)C(=O)c2ccc3ccccc3c2)C1` (centres undefined): the IC50 in series [2] was > 100 µM; in series [5], 3.31 µM; in series [6], > 100 µM; in series [7], > 100 µM. In addition, in series [3], the Ratio IC50 was 1. In series [4], the inhibition was < 10%.
For `C#CCN1CCC(CNS(=O)(=O)c2ccc3ccccc3c2)CC1`, the half-inhibitory concentration (IC50) in series [2] is 53.9 µM; in series [5], 2.6 µM; in [6], > 100 µM; in series [7] it was > 100 µM. Also, in [3], the Ratio IC50 is > 1.86. For the same compound, in [8], the “inhibition (INH)” value was > 70%. The TDI entry in series [9] was “Active”. The inhibition in series [4] was < 10%. The Activity entry in [10] is reported as “Non-Toxic”. Besides, the CC50 at 48 h in [11] came to 242 µM. Further, the results for the selectivity ratio in series [12] and in series [14] were 4 and 90, respectively. In series [13], the outcome was Active.
`C#CCN1CCCC(CN(CCCOC)S(=O)(=O)c2ccc3ccccc3c2)C1` (centres undefined): the IC50 in series [2] was > 100 µM; in series [5], 0.127 µM; in series [6], > 100 µM; in series [7] it was > 100 µM. For the same compound, the Ratio IC50 in series [3] worked out at 1. Besides, the inhibition in [4] was < 10%. For the same compound, the CC50 at 48 h in series [11] worked out at 48.1 µM. Moreover, the Activity entry in series [15] was “Non-Toxic”. For the same compound, the result in [16] was Active. The selectivity ratio in series [14] was determined as 375.
As to `C#CCN1CCC(CN(CCCOC)S(=O)(=O)c2ccc3ccccc3c2)CC1`, the IC50 was > 100 µM in [2], 0.281 µM in [5], > 100 µM in [6] and > 100 µM in series [7]. Besides, the Ratio IC50 in series [3] was 1. In addition, the inhibition in [4] is < 10%.
Turning to `C#CCN1CCC(CN(CCOC)S(=O)(=O)c2ccc3ccccc3c2)CC1`, the IC50 in series [2] is > 100 µM; in series [5], 0.384 µM; in [6], > 100 µM; in series [7], > 100 µM. Besides, the Ratio IC50 in series [3] was found to be 1. Further, in series [4], the inhibition was < 10%.
Regarding `C#CCN1CCC(CNC(=O)c2ccc3ccccc3c2)CC1`, the concentration for half-maximal inhibition (IC50) is 72.6 µM in series [2], 54.4 µM in [5], > 100 µM in series [6] and > 100 µM in series [7]. For the same compound, the Ratio IC50 in series [3] was > 1.38. For the same compound, in series [4], the inhibition is < 10%.
Consider `C#CCN1CCCC(CNS(=O)(=O)c2ccc3ccccc3c2)C1` (centres undefined), for which the IC50 in series [2] is > 100 µM; in [5], 1.22 µM; in series [6] it was > 100 µM; in [7] it was > 100 µM. Further, in series [3], the Ratio IC50 was determined as 1. The inhibition in series [4] was < 10%.
For the compound `C#CCN1CCC(CN(CCCOC)C(=O)c2ccc3ccccc3c2)CC1`, the IC50 is > 100 µM in [2], 4.59 µM in [5], > 100 µM in [6] and > 100 µM in [7]. Moreover, in series [3], the Ratio IC50 is 1. Further, the inhibition in [4] was < 10%.
